Several values for one entry are separate records, joined by “and”; a condition that tells them apart may be missing. Identical values can stand only once.
Tests used:
Assay type in all cases: cell-based, human
Collagen 2A1 = assay: Stem cell chondrogenesis, real time PCR gene expression: Collagen 2A1; details: for Mean regulation / regulation: vs saline; for Mean ΔCp / ΔCp: Collagen 2A1 vs GAPDH; for regulation, Collagen 2A1 / Mean regulation, Collagen 2A1: fold regulation vs saline; for regulation, Collagen 2A1 / ΔCp, Collagen 2A1 / 2^-ΔΔCp vs saline, Collagen 2A1 / ΔΔCp vs saline, Collagen 2A1: single replicate well; for Mean regulation, Collagen 2A1 / Mean ΔCp, Collagen 2A1: triplicate wells; for ΔCp, Collagen 2A1: human bone marrow MSC, chondrogenic medium + TGF beta 3; for ΔCp, Collagen 2A1 / 2^-ΔΔCp vs saline, Collagen 2A1 / ΔΔCp vs saline, Collagen 2A1 / Mean ΔCp, Collagen 2A1: vs Actin
Method: (§1) • Stem Cells: Bone marrow derived human mesenchymal stem cells: Passage 5 Bone marrow derived human mesenchymal stem cells (HUXMA-01001, Cyagen Biosciences, Sunnyvale Calif.) • Mesenchymal Stem Cell Chondrogenic Differentiation medium (GUXMX-90041, Cyagen Biosciences, Sunnyvale Calif.) • TheraPEAK MSCGM chemically defined Stem cell medium (190632 Lonza) • 1 mM Dexamethasone acetate and mifepristone in absolute ethanol (Sigma) • Saline or 0.9% Sodium chloride for injection ZR Flush (Excelsior Medical, Neptune N.J.) • Sterile filtered 0.6 mM sodium caprylate in saline (sigma) • Sterile filtered 3 mM NAT in saline (sigma); To prepare, heat at 60° C. for 30 minutes then sonicate for 5 minutes. • Sterile filtered 10 mM DADKP in saline • 0.2 μM syringe filters • Hepes buffered saline, Trypsin/EDTA, Trypsin neutralizing solution (Lonza reagent pack) • 182 cm2 tissue culture flasks • pipettes and sterile tips • Tissue culture hood, humidified CO2 incubator, water or bead bath • 24 well tissue culture plates • Qiagen RNeasy plus spin columns (Qiagen 74134) • Qiagen RT2 qPCR primer pairs for Collagen 2A1, MMP13, TIMP1, Aggrecan, GAPDH, and Actin B • Roche Sybr green I master mix and Invitrogen Superscript VILO master mix. • Roche 480 lightcycler
(§2) The following stock drug treatment solutions were prepared in saline for injection and warmed to 37° C. in bath: • 4 μM dexamethasone • 4 μM mifepristone • 3 mM NAT • 0.6 mM caprylate • 80 μM DADKP • Mix of 3 mM NAT, 0.6 mM caprylate, 80 μM DADKP (“Ampion” mix)
(§3) Cyagen Chondrogenic Differentiation medium was prepared by manufacturer protocols but excluding dexamethasone and TGF beta 3 supplements, and warmed to 37° C. in bath.
(§4) The treatment protocol included expanding 5 HUXMA stem cells in 182 cm^2 flasks containing 40 mls TheraPEAK™ MSCGM to 80-90% confluence. Cells were trypsinized from the flasks and a 1.0×10^7 cell suspension of HUXMA stem cells was warmed in Cyagen Chondrogenic Differentiation medium. 20 μl of warmed cell suspension was spotted in the middle of each well of a 24-well tissue culture plate (200,000 cells per spot), and incubated at 37° C. and 5% CO2 for one hour.
(§5) The plates were removed from the incubator and an additional 720 μl chondrogenic medium was added to each well. 250 μl saline, or drug solutions were added to the appropriate wells in triplicate (bringing the final drug dilution to one-quarter of the stock drug treatment solution concentrations). 10 μl of TGF beta 3 solution (supplied by Cyagen) was added to each well, and the plates were returned to the incubator.
(§6) RNA isolation and analysis was conducted for all plates as follows at days 7, 14, and 22 post treatment (with the described medium exchanges). […] Qiagen RNeasy plus lysis buffer (with 2mercaptoethanol) was added to each well and gently shaken for 10 minutes. The lysed cell suspensions from each well were transferred to Qiashredder columns and spun at 14,000 rpm for 2 minutes. RNA isolation proceeded by RNeasy™ plus manufacturer's protocol. RNA was eluted from the Qiagen columns using 25 μl RNase free water.
(§7) cDNA synthesis and real time PCR was conducted as follows. First strand synthesis of cDNA from all samples was performed in 20 μl total volume using 10 μl isolated RNA. All cDNA reactions were then diluted with 30 μl nuclease free water. Real time PCR was then performed using 5 μl diluted cDNA, Roche Syber green master mix, and Qiagen RT^2 gPCR™ primer pairs in 20 μl total reaction volume. Relative gene expression was determined by delta deta Ct method.

MMP13 = assay: Stem cell chondrogenesis, real time PCR gene expression: MMP13; details: for Mean regulation: vs saline; for Mean ΔCp / ΔCp: MMP13 vs GAPDH
Method: as §1, §2, §3, §4, §5, §6, §7

SOX9 = assay: Stem cell chondrogenesis, real time PCR gene expression: SOX9; details: Day 14
Method: The treatment protocol included expanding 5 HUXMA stem cells in 182 cm^2 flasks containing 40 […] to 80-90% confluence. Cells were trypsinized from the flasks and a 1.0×10^7 cell suspension of HUXMA stem cells was warmed in Cyagen Chondrogenic Differentiation medium. 20 μl of warmed cell suspension was spotted in the middle of each well of a 24-well tissue culture plate (200,000 cells per spot), and incubated at 37° C. and 5% CO2 for one hour. […] Medium exchanges were performed every 3-4 days by aspirating the medium from the wells and replacing with fresh chondrogenic medium, diluted stocks, and TGF beta 3, as described above. […] Medium from the wells was removed and saved for further protein analysis. Qiagen RNeasy plus lysis buffer (with 2mercaptoethanol) was added to each well and gently shaken for 10 minutes. The lysed cell suspensions from each well were transferred to Qiashredder columns and spun at 14,000 rpm for 2 minutes. RNA isolation proceeded by RNeasyTM plus manufacturer's protocol. RNA was eluted from the Qiagen columns using 25 μl RNase free water. cDNA synthesis and real time PCR was conducted as follows. First strand synthesis of cDNA from all samples was performed in 20 μl total volume using 10 μl isolated RNA. All cDNA reactions were then diluted with 30 μl nuclease free water. Real time PCR was then performed using 5 μl diluted cDNA, Roche Syber green master mix, and Qiagen RT^2 gPCRTM primer pairs in 20 μl total reaction volume.

Aggrecan = assay: Stem cell chondrogenesis, real time PCR gene expression: Aggrecan; details: Day 22; for Mean ΔCp / ΔCp: Aggrecan vs Actin; for Mean regulation / regulation: vs saline
Method: as §1, §2, §3, §4, §5, §6, §7

TIMP1 = assay: Stem cell chondrogenesis, real time PCR gene expression: TIMP1; details: Day 22; for Mean ΔCp / ΔCp: TIMP1 vs Actin
Method: as §1, §2, §3, §4, §5, §6, §7

[1] = Day 7, vs Actin, single replicate well
[2] = vs Actin, single replicate well

## CC(=O)OCC(=O)[C@@]1(O)[C@H](C)C[C@H]2[C@@H]3CCC4=CC(=O)C=C[C@]4(C)[C@@]3(F)[C@@H](O)C[C@@]21C [Dexamethasone, Dexamethasone acetate]
Collagen 2A1; Collagen 2A1, Day 22, Table 12
  2-^ΔΔCP vs saline: 141.7 and 196.27 and 168.51
  Cp Coll: 22.42 and 21.94 and 21.42
  Mean regulation: 168.82
  regulation: 141.70 and 196.27 and 168.51
Collagen 2A1; Collagen 2A1, Day 22, Table 16
  2^-ΔΔCp vs saline: 141.7 and 196.27 and 168.51
  Cp Coll: 22.42 and 21.94 and 21.42
  Mean regulation: 168.82
  regulation: 141.70 and 196.27 and 168.51
Collagen 2A1; Day 22, Table 12
  Mean ΔCp: 5.76
  ΔCp: 6 and 5.53 and 5.75
Collagen 2A1; Day 22, Table 16
  Mean ΔCp: 5.76
  ΔCp: 6 and 5.53 and 5.75
Collagen 2A1; Day 7
  regulation, Collagen 2A1: −1.01 and 2.61 and 2.72
  Mean regulation, Collagen 2A1: 1.44
  ΔCp, Collagen 2A1: 6.75 and 5.35 and 5.29
  2^-ΔΔCp vs saline, Collagen 2A1: 0.9885 and 2.6087 and 2.7195
  ΔΔCp vs saline, Collagen 2A1: 0.017 and −1.38 and −1.44
  Mean ΔCp, Collagen 2A1: 5.797
Collagen 2A1; Day 14
  regulation, Collagen 2A1: 7.29 and 10.39 and 6.57
  Mean regulation, Collagen 2A1: 8.08
  ΔCp, Collagen 2A1: 8.19 and 7.68 and 8.34
  2^-ΔΔCp vs saline, Collagen 2A1: 7.2938 and 10.387 and 6.5735
  ΔΔCp vs saline, Collagen 2A1: −2.87 and −3.38 and −2.72
  Mean ΔCp, Collagen 2A1: 8.07
MMP13; Day 7, fold regulation vs saline, single replicate well
  regulation, MMP13: −1.62 and 1.64 and 1.33
MMP13; Day 7, fold regulation vs saline, triplicate wells
  Mean regulation, MMP13: 0.45
MMP13; Day 7, human bone marrow MSC, chondrogenic medium + TGF beta 3, vs Actin, single replicate well
  ΔCp, MMP13: 5.33 and 3.92 and 4.23
MMP13; [1]
  2^-ΔΔCp vs saline, MMP13: 0.6184 and 1.6434 and 1.3256
  ΔΔCp vs saline, MMP13: 0.693 and −0.72 and −0.41
MMP13; Day 7, vs Actin, triplicate wells
  Mean ΔCp, MMP13: 4.493
MMP13; MMP13, Day 22, Table 12
  Cp, MMP13: 20.77 and 20.68 and 20.35
  ΔΔCp vs saline: 1.357 and 1.277 and 1.687
  Mean regulation: −2.73
MMP13; MMP13, Day 22, Table 16
  2^-ΔΔCp vs saline: 0.3905 and 0.4127 and 0.3106
  Cp, MMP13: 20.77 and 20.68 and 20.35
  ΔΔCp vs saline: 1.357 and 1.277 and 1.687
  Mean regulation: −2.73
MMP13; Day 22, Table 12
  Mean ΔCp: 4.433
  ΔCp: 4.35 and 4.27 and 4.68
MMP13; Day 22, Table 16
  Mean ΔCp: 4.433
  ΔCp: 4.35 and 4.27 and 4.68
SOX9; fold regulation vs saline, single replicate well
  regulation, SOX9: −2.04 and −1.24 and −1.80
SOX9; fold regulation vs saline, triplicate wells
  Mean regulation, SOX9: −1.69
SOX9; human bone marrow MSC, chondrogenic medium + TGF beta 3, vs Actin, single replicate well
  ΔCp, SOX9: 8.21 and 7.49 and 8.03
SOX9; [2]
  2^-ΔΔCp vs saline, SOX9: 0.4897 and 0.8066 and 0.5548
  ΔΔCp vs saline, SOX9: 1.03 and 0.31 and 0.85
SOX9; vs Actin, triplicate wells
  Mean ΔCp, SOX9: 7.91
Aggrecan; Table 12
  Mean ΔCp: 6.523
  ΔCp: 6.28 and 6.69 and 6.6
Aggrecan; Table 16
  Mean ΔCp: 6.523
  ΔCp: 6.28 and 6.69 and 6.6
Aggrecan; Aggrecan, Table 12
  2-ΔΔCp vs saline: 15.313 and 11.525 and 12.267
  Cp Agg: 20.48 and 20.68 and 20.44
  Mean regulation: 13.03
  regulation: 15.31 and 11.52 and 12.27
Aggrecan; Aggrecan, Table 16
  2^-ΔΔCp vs saline: 15.313 and 11.525 and 12.267
  Cp Agg: 20.48 and 20.68 and 20.44
  Mean regulation: 13.03
  regulation: 15.31 and 11.52 and 12.27
TIMP1; TIMP1, Table 12
  Cp TIMP1: 17.35 and 16.81
TIMP1; TIMP1, Table 16
  2-^ΔΔCp vs saline: 1.5333 and 1.3256 and 1.7371
  Cp TIMP1: 17.35 and 16.81
TIMP1; TIMP1, vs saline, Table 12
  Mean regulation: 1.53
  regulation: 1.33 and 1.74 and 1.53
TIMP1; TIMP1, vs saline, Table 16
  regulation: 1.53 and 1.33 and 1.74
TIMP1; Table 12
  Mean ΔCp: 3.16
  ΔCp: 3.36 and 2.97 and 3.15
TIMP1; Table 16
  Mean ΔCp: 3.16
  ΔCp: 3.15 and 3.36 and 2.97

From patent publication US11026940B2, “Compositions for the mobilization, homing, expansion and differentiation of stem cells and methods of using the same” (Ampio Pharmaceuticals, Inc., priority 2013, dated 2021)
